We go through ten compounds from patent US12590067B2, “Herbicidal cyclohexanedione derivatives” (SYNGENTA CROP PROTECTION AG, priority 2019, dated 2026).

Molecules are shown by their SMILES.

Common to all, as to experiment: Glasshouse herbicidal test, pre- and post-emergence, percentage damage to the plant
Holding throughout (type): in vivo

Test [1] deals with Avena fatua (AVEFA). The conditions noted are these: 250 g/h, evaluated after 13 days; for AVEFA POST percentage damage caused to the plant (five-point scale): post-emergence; for AVEFA PRE percentage damage caused to the plant (five-point scale): pre-emergence. As to the method:
(§1) Seeds of a variety of test species are sown in standard soil in pots (Lolium perenne (LOLPE), Setaria faberi (SETFA), Alopecurus myosuroides (ALOMY), Echinochloa crus-galli (ECHCG), Avena fatua (AVEFA)). After cultivation for one day (pre-emergence) or after 8 days cultivation (post-emergence) under controlled conditions in a glasshouse (at 24/16° C., day/night; 14 hours light; 65% humidity), the plants are sprayed with an aqueous spray solution derived from the formulation of the technical active ingredient in acetone/water (50:50) solution containing 0.5% Tween 20 (polyoxyethelyene sorbitan monolaurate, CAS RN 9005-64-5). Compounds are applied at 250 g/h. The test plants are then grown in a glasshouse under controlled conditions in a glasshouse (at 24/16° C., day/night; 14 hours light; 65% humidity) and watered twice daily. After 13 days for pre and post-emergence, the test is evaluated for the percentage damage caused to the plant. The biological activities are shown in the following table on a five-point scale (5=80-100%; 4=60-79%; 3=40-59%; 2=20-39%; 1=0-19%).

Test [2] has as its system Alopecurus myosuroides (ALOMY). The conditions noted are these: 250 g/h, evaluated after 13 days; for ALOMY POST percentage damage caused to the plant (five-point scale): post-emergence; for ALOMY PRE percentage damage caused to the plant (five-point scale): pre-emergence. The method, then: as §1
The subject of test [3] is Lolium perenne (LOLPE). The conditions noted are these: 250 g/h, evaluated after 13 days; for LOLPE POST percentage damage caused to the plant (five-point scale): post-emergence; for LOLPE PRE percentage damage caused to the plant (five-point scale): pre-emergence. As to the method:
as §1

Test [4] concerns Setaria faberi (SETFA). The conditions noted are these: 250 g/h, evaluated after 13 days; for SETFA POST percentage damage caused to the plant (five-point scale): post-emergence; for SETFA PRE percentage damage caused to the plant (five-point scale): pre-emergence. The method, then:
as §1

The subject of test [5] is Echinochloa crus-galli (ECHCG). The conditions noted are these: 250 g/h, evaluated after 13 days; for ECHCG POST percentage damage caused to the plant (five-point scale): post-emergence; for ECHCG PRE percentage damage caused to the plant (five-point scale): pre-emergence. The method, then: as §1

Take `CC(=O)N1CCC2(CC1)CC(=O)C(c1c(C)cc(-c3ccc(C#N)cn3)cc1Cl)C(=O)C2` [Compound A56]: in test [1], the “AVEFA POST percentage damage caused to the plant (five-point scale)” value (“AVEFA POST percentage damage caused” below) is 5 (5=80-100%) and the “AVEFA PRE percentage damage caused to the plant (five-point scale)” value (“AVEFA PRE percentage damage caused” below) is recorded as 3 (3=40-59%). Further, in test [2], the “ALOMY POST percentage damage caused to the plant (five-point scale)” value (shortened to “ALOMY POST percentage damage caused”) is reported as 5 (5=80-100%) and the “ALOMY PRE percentage damage caused to the plant (five-point scale)” value (from here on “ALOMY PRE percentage damage caused”) is 3 (3=40-59%). Further, in test [3], the “LOLPE POST percentage damage caused to the plant (five-point scale)” value (“LOLPE POST percentage damage caused” below) is 5 (5=80-100%) and the “LOLPE PRE percentage damage caused to the plant (five-point scale)” value (“LOLPE PRE percentage damage caused” below) is reported as 5 (5=80-100%). Further, in test [4], the “SETFA POST percentage damage caused to the plant (five-point scale)” value (shortened to “SETFA POST percentage damage caused”) is 5 (5=80-100%) and the “SETFA PRE percentage damage caused to the plant (five-point scale)” value (from here on “SETFA PRE percentage damage caused”) was 5 (5=80-100%). In addition, in test [5], the “ECHCG POST percentage damage caused to the plant (five-point scale)” value (“ECHCG POST percentage damage caused” below) is given as 5 (5=80-100%) and the “ECHCG PRE percentage damage caused to the plant (five-point scale)” value (“ECHCG PRE percentage damage caused” below) was 4 (4=60-79%).

Consider `CCc1cc(-c2ccc(C#N)cn2)cc(CC)c1C1C(=O)CC2(CCN(C(=O)C3CC3)CC2)CC1=O` [Compound A52], for which, in test [1], the “AVEFA POST percentage damage caused” value is 5 (5=80-100%) and the “AVEFA PRE percentage damage caused” value is on record as 5 (5=80-100%). Also, in test [2], the “ALOMY POST percentage damage caused” value is recorded as 5 (5=80-100%) and the “ALOMY PRE percentage damage caused” value was 5 (5=80-100%). For the same compound, in test [3], the “LOLPE POST percentage damage caused” value is 5 (5=80-100%) and the “LOLPE PRE percentage damage caused” value was 5 (5=80-100%). In test [4], the “SETFA POST percentage damage caused” value is given as 5 (5=80-100%) and the “SETFA PRE percentage damage caused” value is on record as 5 (5=80-100%). In test [5], the “ECHCG POST percentage damage caused” value is 5 (5=80-100%) and the “ECHCG PRE percentage damage caused” value is given as 5 (5=80-100%).

Take `CC#Cc1cc(Cl)c(C2C(=O)CC3(CCN(C(=O)NC(C)(C)C)CC3)CC2=O)c(OC)c1` [Compound A6]: in test [1], the “AVEFA POST percentage damage caused” value was 5 (5=80-100%) and the “AVEFA PRE percentage damage caused” value is recorded as 5 (5=80-100%). Besides, in test [2], the “ALOMY POST percentage damage caused” value is on record as 5 (5=80-100%) and the “ALOMY PRE percentage damage caused” value is 5 (5=80-100%). Also, in test [3], the “LOLPE POST percentage damage caused” value was 5 (5=80-100%) and the “LOLPE PRE percentage damage caused” value is listed as 5 (5=80-100%). Further, in test [4], the “SETFA POST percentage damage caused” value is 5 (5=80-100%) and the “SETFA PRE percentage damage caused” value is given as 5 (5=80-100%). In test [5], the “ECHCG POST percentage damage caused” value is listed as 5 (5=80-100%) and the “ECHCG PRE percentage damage caused” value is reported as 5 (5=80-100%).

Regarding `CC#Cc1cc(Cl)c(C2C(=O)CC3(CCN(C(=O)NC(=O)C(C)(C)C)CC3)CC2=O)c(OC)c1` [Compound A7], in test [1], the “AVEFA POST percentage damage caused” value is listed as 5 (5=80-100%) and the “AVEFA PRE percentage damage caused” value is reported as 5 (5=80-100%). Besides, in test [2], the “ALOMY POST percentage damage caused” value is recorded as 5 (5=80-100%) and the “ALOMY PRE percentage damage caused” value is given as 5 (5=80-100%). For the same compound, in test [3], the “LOLPE POST percentage damage caused” value was 5 (5=80-100%) and the “LOLPE PRE percentage damage caused” value is on record as 5 (5=80-100%). In test [4], the “SETFA POST percentage damage caused” value is reported as 5 (5=80-100%) and the “SETFA PRE percentage damage caused” value is reported as 5 (5=80-100%). In test [5], the “ECHCG POST percentage damage caused” value is 5 (5=80-100%) and the “ECHCG PRE percentage damage caused” value is given as 5 (5=80-100%).

Take `CCc1cc(-c2ccc(C#N)cn2)cc(C)c1C1C(=O)CC2(CCN(C(=O)C3CC3)CC2)CC1=O` [Compound A51, 6-[4-[3-(cyclopropanecarbonyl)-8,10-dioxo-3-azaspiro[5.5]undecan-9-yl]-3-ethyl-5-methyl-phenyl]pyridine-3-carbonitrile]: in test [1], the “AVEFA POST percentage damage caused” value was 5 (5=80-100%) and the “AVEFA PRE percentage damage caused” value was 5 (5=80-100%). Moreover, in test [2], the “ALOMY POST percentage damage caused” value was 5 (5=80-100%) and the “ALOMY PRE percentage damage caused” value was 5 (5=80-100%). For the same compound, in test [3], the “LOLPE POST percentage damage caused” value was 5 (5=80-100%) and the “LOLPE PRE percentage damage caused” value is on record as 5 (5=80-100%). In test [4], the “SETFA POST percentage damage caused” value is given as 5 (5=80-100%) and the “SETFA PRE percentage damage caused” value is reported as 5 (5=80-100%). Further, in test [5], the “ECHCG POST percentage damage caused” value is listed as 5 (5=80-100%) and the “ECHCG PRE percentage damage caused” value was 4 (4=60-79%).

As for `CC#Cc1cc(Cl)c(C2C(=O)CC3(CCN(C(=O)C4CC4)CC3)CC2=O)c(OC)c1` [Compound A8], in test [1], the “AVEFA POST percentage damage caused” value is 5 (5=80-100%) and the “AVEFA PRE percentage damage caused” value is 5 (5=80-100%). In test [2], the “ALOMY POST percentage damage caused” value was 5 (5=80-100%) and the “ALOMY PRE percentage damage caused” value is recorded as 5 (5=80-100%). For the same compound, in test [3], the “LOLPE POST percentage damage caused” value was 5 (5=80-100%) and the “LOLPE PRE percentage damage caused” value is on record as 5 (5=80-100%). Besides, in test [4], the “SETFA POST percentage damage caused” value is 5 (5=80-100%) and the “SETFA PRE percentage damage caused” value was 5 (5=80-100%). In test [5], the “ECHCG POST percentage damage caused” value is reported as 5 (5=80-100%) and the “ECHCG PRE percentage damage caused” value is listed as 5 (5=80-100%).

As for `COc1cc(-c2ccc(C#N)cn2)cc(Cl)c1C1C(=O)CC2(CCN(C(=O)C3CC3)CC2)CC1=O` [Compound A35], in test [1], the “AVEFA POST percentage damage caused” value was 5 (5=80-100%) and the “AVEFA PRE percentage damage caused” value is recorded as 5 (5=80-100%). Further, in test [2], the “ALOMY POST percentage damage caused” value is on record as 5 (5=80-100%) and the “ALOMY PRE percentage damage caused” value was 5 (5=80-100%). Moreover, in test [3], the “LOLPE POST percentage damage caused” value is listed as 5 (5=80-100%) and the “LOLPE PRE percentage damage caused” value is 5 (5=80-100%). In test [4], the “SETFA POST percentage damage caused” value is 5 (5=80-100%) and the “SETFA PRE percentage damage caused” value was 5 (5=80-100%). Moreover, in test [5], the “ECHCG POST percentage damage caused” value is listed as 5 (5=80-100%) and the “ECHCG PRE percentage damage caused” value is on record as 5 (5=80-100%).

As to `COc1cc(-c2ccc(C#N)cn2)cc(Cl)c1C1C(=O)CC2(CCN(C(C)=O)CC2)CC1=O` [Compound A13], in test [1], the “AVEFA POST percentage damage caused” value was 5 (5=80-100%) and the “AVEFA PRE percentage damage caused” value is 2 (2=20-39%). In test [2], the “ALOMY POST percentage damage caused” value is 5 (5=80-100%) and the “ALOMY PRE percentage damage caused” value is recorded as 3 (3=40-59%). Also, in test [3], the “LOLPE POST percentage damage caused” value is 5 (5=80-100%) and the “LOLPE PRE percentage damage caused” value is reported as 1 (1=0-19%). In addition, in test [4], the “SETFA POST percentage damage caused” value was 5 (5=80-100%) and the “SETFA PRE percentage damage caused” value is 2 (2=20-39%). In test [5], the “ECHCG POST percentage damage caused” value is 5 (5=80-100%) and the “ECHCG PRE percentage damage caused” value is 5 (5=80-100%).

`CC#Cc1cc(Cl)c(C2C(=O)CC3(CCN(C(=O)C(F)F)CC3)CC2=O)c(Cl)c1` [Compound A16]: in test [1], the “AVEFA POST percentage damage caused” value is 5 (5=80-100%) and the “AVEFA PRE percentage damage caused” value is listed as 5 (5=80-100%). In test [2], the “ALOMY POST percentage damage caused” value is 5 (5=80-100%) and the “ALOMY PRE percentage damage caused” value is given as 5 (5=80-100%). For the same compound, in test [3], the “LOLPE POST percentage damage caused” value is listed as 5 (5=80-100%) and the “LOLPE PRE percentage damage caused” value is listed as 5 (5=80-100%). In addition, in test [4], the “SETFA POST percentage damage caused” value was 5 (5=80-100%) and the “SETFA PRE percentage damage caused” value was 5 (5=80-100%). For the same compound, in test [5], the “ECHCG POST percentage damage caused” value is 5 (5=80-100%) and the “ECHCG PRE percentage damage caused” value is listed as 5 (5=80-100%).

Turning to `Cc1cc(-c2ccc(F)cn2)cc(Cl)c1C1C(=O)CC2(CCN(C(=O)C3CC3)CC2)CC1=O` [Compound A58], in test [1], the “AVEFA POST percentage damage caused” value was 5 (5=80-100%) and the “AVEFA PRE percentage damage caused” value is on record as 5 (5=80-100%). In addition, in test [2], the “ALOMY POST percentage damage caused” value is given as 5 (5=80-100%) and the “ALOMY PRE percentage damage caused” value is given as 5 (5=80-100%). Besides, in test [3], the “LOLPE POST percentage damage caused” value is recorded as 5 (5=80-100%) and the “LOLPE PRE percentage damage caused” value is recorded as 5 (5=80-100%). In addition, in test [4], the “SETFA POST percentage damage caused” value is given as 5 (5=80-100%) and the “SETFA PRE percentage damage caused” value is reported as 5 (5=80-100%). Moreover, in test [5], the “ECHCG POST percentage damage caused” value is given as 5 (5=80-100%) and the “ECHCG PRE percentage damage caused” value is recorded as 5 (5=80-100%).
